The source made the active and inactive calls.
What was measured:
[1] = biological target: T1, G-protein coupled receptor 35 (Homo sapiens, UniProt Q9HC97); assay: SAR analysis of Antagonists of the GPR35 Receptor using an Image-Based Assay - Set 6. [Related pubchem assays (depositor defined):AID2013, AID2026]; type: functional
Cannabinoid receptor 2 [2] = biological target: T2, Cannabinoid receptor 2 (Homo sapiens, UniProt P34972); assay: SAR analysis of agonists of the Cannabinoid Receptor 2 using an Image-Based Assay - Set 3. [Related pubchem assays (depositor defined):AID2013, AID2026]; type: functional
Cytochrome P450 2D6 = Cytochrome P450 2D6 (Homo sapiens, UniProt P10635);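 also: CYP2D6 member of a cytochrome P450 panel assay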
[3] = biological target: T3, G-protein coupled receptor 55 (Homo sapiens, UniProt Q9Y2T6); assay: SAR Analysis of Selective Antagonists of GPR55 using an Image-Based Assay - Set 4. [Related pubchem assays (depositor defined):AID2013, AID2026]; type: functional
Cannabinoid receptor 2 [4] = biological target: T2, Cannabinoid receptor 2; assay: SAR analysis of antagonists of the Cannabinoid Receptor 2 using an Image-Based Assay - Set 3. [Related pubchem assays (depositor defined):AID2013, AID2026]; type: functional
[5] = biological target: T1, G-protein coupled receptor 35; assay: SAR analysis of Agonists of the GPR35 Receptor using an Image-Based Assay - Set 4. [Related pubchem assays (depositor defined):AID2013, AID2026]; type: functional
Cannabinoid receptor 1 [6] = biological target: T4, Cannabinoid receptor 1 (Homo sapiens, UniProt P21554); assay: SAR analysis of antagonists of the Cannabinoid Receptor 1 using an Image-Based Assay - Set 4. [Related pubchem assays (depositor defined):AID2013, AID2026]; type: functional
Cytochrome P450 2C19 = Cytochrome P450 2C19 (Homo sapiens, UniProt P33261); assay: Cytochrome panel assay with activity outcomes. Panel member name: p450-cyp2c19 Compounds with AC50 equal or less than 10 uM are considered active; type: functional; details: read-out: AC50
Cannabinoid receptor 1 [7] = biological target: T4, Cannabinoid receptor 1; assay: SAR analysis of agonists of the Cannabinoid Receptor 1 using an Image-Based Assay - Set 4. [Related pubchem assays (depositor defined):AID2013, AID2026]; type: functional
[8] = biological target: Voltage-dependent T-type calcium channel subunit alpha-1H (Homo sapiens, UniProt O95180); assay: Cav3.2 T-type channel inhibitors, synthesized analogs, SAR follow-up, cell-based, synthetic library set 2, HEK293 HH8, Fluo-4 (AID 493023); type: functional
[9] = biological target: T3, G-protein coupled receptor 55; assay: GPR55 agonists via beta-arrestin recruitment, primary screen, imaging, U2OS cells, beta-arrestin-GFP redistribution (AID 1961); type: functional
Estrogen receptor = biological target: T5, Estrogen receptor (Homo sapiens, UniProt P03372); assay: potentiators of ERα–SRC-1 coactivator binding, dose response, biochemical, TR-FRET, ERα LBD (AID 737)
T5 sequence (P03372 whole entry): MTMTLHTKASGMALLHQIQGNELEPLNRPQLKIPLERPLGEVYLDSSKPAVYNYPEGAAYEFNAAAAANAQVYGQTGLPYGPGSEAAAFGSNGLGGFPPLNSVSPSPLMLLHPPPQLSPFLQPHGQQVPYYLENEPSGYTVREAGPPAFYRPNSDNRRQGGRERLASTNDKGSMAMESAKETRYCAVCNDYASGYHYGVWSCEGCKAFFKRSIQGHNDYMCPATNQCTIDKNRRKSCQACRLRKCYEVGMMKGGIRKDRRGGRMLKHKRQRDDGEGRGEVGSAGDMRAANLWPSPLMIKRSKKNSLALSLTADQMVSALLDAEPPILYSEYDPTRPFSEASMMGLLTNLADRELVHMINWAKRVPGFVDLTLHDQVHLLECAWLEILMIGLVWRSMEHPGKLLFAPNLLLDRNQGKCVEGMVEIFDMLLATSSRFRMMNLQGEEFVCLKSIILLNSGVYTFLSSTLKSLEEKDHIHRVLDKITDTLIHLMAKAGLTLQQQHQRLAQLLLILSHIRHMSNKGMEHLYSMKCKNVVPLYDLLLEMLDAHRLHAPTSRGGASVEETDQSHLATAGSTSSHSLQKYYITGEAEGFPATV

Mu-type opioid receptor = Mu-type opioid receptor (Homo sapiens, UniProt P35372); assay: SAR Analysis of Antagonists of the MOR Receptor using an Image-Based Assay - Set 3. [Related pubchem assays (depositor defined):AID1777, AID1785, AID1786, AID1966, AID2133, AID2136, AID2284, AID2285, AID2420]; type: functional
[10] = biological target: T6, Kappa-type opioid receptor (Homo sapiens, UniProt P41145); assay: SAR analysis of small molecule antagonists of the kappa opioid receptor via a luminescent beta-arrestin assay - Set 3. [Related pubchem assays (depositor defined):AID1777, AID1778, AID1785, AID1786, AID1966, AID2133, AID2136, AID2285, AID2495]; type: functional
[11] = biological target: T6, Kappa-type opioid receptor; assay: SAR analysis of Antagonists of the Kappa Opioid Receptor (KOR) using an Image-Based Assay - Set 4. [Related pubchem assays (depositor defined):AID1777, AID1785]; type: functional
[12] = biological target: T6, Kappa-type opioid receptor; assay: SAR analysis of small molecule antagonists of the kappa opioid receptor via a luminescent beta-arrestin assay - Set 6. [Related pubchem assays (depositor defined):AID1777, AID1778, AID1785, AID1786, AID1966, AID2133, AID2136, AID2285]; type: functional
[13] = biological target: Delta-type opioid receptor (Homo sapiens, UniProt P41143); assay: SAR Analysis of Antagonists of the DOR Receptor using an Image-Based Assay - Set 3. [Related pubchem assays (depositor defined):AID1777, AID1785]; type: functional;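 also: U2OS cells expressing DOR1 and beta-arrestin GFP stimulated with 100 nM SNC80; imaging of GFP-tagged beta-arrestin moving into spots after receptor activation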
[14] = biological target: T7, Type-1 angiotensin II receptor (Homo sapiens, UniProt P30556); assay: AT1 receptor agonists, dose response, selectivity assay for APJ receptor agonist project, cell-based, uHTS hits (AID 488865); type: functional;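 also: beta-arrestin recruitment to AT1 measured by enzyme fragment complementation luminescence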
T7 sequence (P30556 whole entry): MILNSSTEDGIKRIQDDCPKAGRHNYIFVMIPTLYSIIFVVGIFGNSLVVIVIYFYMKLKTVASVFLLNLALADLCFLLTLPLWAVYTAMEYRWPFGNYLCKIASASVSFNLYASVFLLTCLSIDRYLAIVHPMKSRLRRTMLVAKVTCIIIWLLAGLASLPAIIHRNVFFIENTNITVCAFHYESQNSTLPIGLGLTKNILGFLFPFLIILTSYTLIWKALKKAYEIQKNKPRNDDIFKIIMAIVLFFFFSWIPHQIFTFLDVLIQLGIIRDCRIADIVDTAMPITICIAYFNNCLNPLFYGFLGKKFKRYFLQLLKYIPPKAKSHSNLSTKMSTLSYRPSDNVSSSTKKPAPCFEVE

SUMO-activating enzyme = SUMO-activating enzyme (Homo sapiens, UniProt Q9UBT2); assay: SUMOylation inhibitor hit validation, confirmation, SUMOylation inhibitor project, biochemical, AlphaScreen (AID 2018); type: functional
[15] = biological target: T8, Microphthalmia-associated transcription factor (Homo sapiens, UniProt O75030); assay: TRPM1 promoter luciferase signal decrease, dose response, MITF inhibitor project, cell-based, SK-MEL-5, cherry-picked, set 3 (AID 493073); type: functional
T8 sequence (O75030 whole entry): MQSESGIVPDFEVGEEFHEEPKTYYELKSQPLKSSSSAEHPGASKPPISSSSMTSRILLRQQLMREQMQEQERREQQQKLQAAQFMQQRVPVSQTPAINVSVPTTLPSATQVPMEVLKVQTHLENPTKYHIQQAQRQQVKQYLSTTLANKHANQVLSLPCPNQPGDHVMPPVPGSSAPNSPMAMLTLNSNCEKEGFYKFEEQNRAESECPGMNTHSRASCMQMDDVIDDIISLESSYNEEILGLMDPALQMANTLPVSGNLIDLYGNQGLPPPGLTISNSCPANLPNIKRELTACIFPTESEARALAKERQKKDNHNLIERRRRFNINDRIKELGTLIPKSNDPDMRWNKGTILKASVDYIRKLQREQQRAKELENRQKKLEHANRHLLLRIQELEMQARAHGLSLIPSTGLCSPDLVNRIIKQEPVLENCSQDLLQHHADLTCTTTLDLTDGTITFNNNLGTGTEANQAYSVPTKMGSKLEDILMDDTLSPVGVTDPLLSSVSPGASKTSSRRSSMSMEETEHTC

[16] = biological target: T9, Runt-related transcription factor 1/Core-binding factor subunit beta (Homo sapiens, UniProt Q01196+Q13951); assay: inhibitors of RUNX1 Runt–CBFb-SMMHC binding, biochemical, TR-FRET (AID 1438); type: protein assay
[17] = biological target: T9, Runt-related transcription factor 1/Core-binding factor subunit beta; assay: inhibitors of RUNX1 Runt–CBFb-SMMHC binding, primary screen, biochemical, FRET, Cerulean-Runt, Venus-CBFb-SMMHC, uHTS (AID 1434); type: protein assay;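 also: partner is the CBFb-SMMHC leukemia fusion protein rather than wild-type CBFb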
Beta Lactamase = Beta Lactamase (Pseudomonas aeruginosa, UniProt Q932Y6); assay: beta-lactamase reporter inhibitor potency, dose response, artefact control for TLR9-MyD88 binding inhibitor project, BLA reporter cells, FRET fluorescence (AID 588341); type: cell-based;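 also: cell based assay in CHO-K1 cells stably expressing beta-lactamase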
CHO = assay: cytotoxicity in TLR9-MyD88 CHO cells, dose response, cytotoxicity control for TLR9-MyD88 binding inhibitor project, cell-based, luminescence (AID 588339); type: functional, hamster; details: Cricetulus griseus;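 also: CHO cells stably coexpressing TLR9 and MyD88 fusions from primary screen; compound exposure lasted 48 hours before viability readout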
[18] = growth suppression of beta-catenin-knockout colon cells, dose response, cell-based, HCT116, human colon tumor (AID 1045); type: functional;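 also: HCT116 colon tumor cells with beta catenin knocked out; cells exposed to compound for 60 hours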
[19] = growth suppression of PTEN-null colon cells, dose response, cell-based, HCT116 PTEN knockout (AID 1047); type: functional;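 also: HCT116 colon tumor cells with PTEN knocked out; cells exposed to compound for 60 hours before readout; potency for loss of cell viability measured by luminescence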
Kallikrein-7 = Kallikrein-7 (Homo sapiens, UniProt P49862); assay: Fluorescence Intensity-based biochemical primary high throughput dose response assay to identify activators of kallikrein-7 (K7) zymogen.
Coagulation factor XII = biological target: T10, Coagulation factor XII (Homo sapiens, UniProt P00748); assay: Factor XIIa Dose Response Confirmation from Single Well HTS. [Related pubchem assays (depositor defined):AID701]; type: functional
T10 sequence (P00748 whole entry): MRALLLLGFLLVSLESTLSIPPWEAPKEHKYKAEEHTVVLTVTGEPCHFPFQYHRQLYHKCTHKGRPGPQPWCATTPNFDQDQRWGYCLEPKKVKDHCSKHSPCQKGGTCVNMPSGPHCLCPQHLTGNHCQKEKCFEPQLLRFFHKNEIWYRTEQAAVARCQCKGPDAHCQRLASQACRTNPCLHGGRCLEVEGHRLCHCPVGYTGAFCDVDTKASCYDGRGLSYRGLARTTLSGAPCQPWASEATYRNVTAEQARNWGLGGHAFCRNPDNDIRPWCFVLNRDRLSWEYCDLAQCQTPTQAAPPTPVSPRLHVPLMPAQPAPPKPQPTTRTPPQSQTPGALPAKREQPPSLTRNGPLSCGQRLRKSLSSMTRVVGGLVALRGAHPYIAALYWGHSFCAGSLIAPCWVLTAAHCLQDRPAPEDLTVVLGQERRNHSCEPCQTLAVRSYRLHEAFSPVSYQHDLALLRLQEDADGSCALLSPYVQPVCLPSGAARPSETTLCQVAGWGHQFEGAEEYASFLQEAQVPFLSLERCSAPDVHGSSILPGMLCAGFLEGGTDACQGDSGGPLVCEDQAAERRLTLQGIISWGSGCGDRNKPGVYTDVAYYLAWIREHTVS

[20] = biological target: Mitogen-activated protein kinase 10 (Homo sapiens, UniProt P53779); assay: Dose response biochemical screening assay for inhibitors of c-Jun N-Terminal Kinase 3 (JNK3). [Related pubchem assays: 746 ]
[21] = biological target: Lysosomal acid glucosylceramidase (Homo sapiens, UniProt P04062); assay: Dose response cell-based high throughput screening assay to identify enhancers of beta-glucosidase activity. [Related pubchem assays: 784 ]; type: functional
[22] = biological target: T11, E3 ubiquitin-protein ligase XIAP (Homo sapiens, UniProt P98170); assay: Counter Screen using XIAP-Bir3 for Chemical Antagonists of Bir1/2 domains of IAP-family anti-apoptotic proteins. [Related pubchem assays (depositor defined):AID1018, AID1449, AID1514, AID1638, AID1749, AID1750, AID488957, AID488963]
[23] = biological target: T11, E3 ubiquitin-protein ligase XIAP; assay: XIAP antagonists, biochemical, IAP family, fluorescence polarization (AID 1018); type: functional

T6 sequence (P41145 whole entry): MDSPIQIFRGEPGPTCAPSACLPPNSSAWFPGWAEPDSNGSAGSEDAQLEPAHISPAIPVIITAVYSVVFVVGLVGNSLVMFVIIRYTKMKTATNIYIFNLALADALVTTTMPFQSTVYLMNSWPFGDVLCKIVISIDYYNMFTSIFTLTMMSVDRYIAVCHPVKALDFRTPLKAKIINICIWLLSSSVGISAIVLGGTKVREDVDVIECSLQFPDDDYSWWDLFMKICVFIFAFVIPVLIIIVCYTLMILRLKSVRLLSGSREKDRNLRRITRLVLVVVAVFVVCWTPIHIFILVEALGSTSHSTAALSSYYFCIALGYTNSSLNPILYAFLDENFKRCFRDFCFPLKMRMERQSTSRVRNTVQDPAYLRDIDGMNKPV
T1 sequence (Q9HC97 whole entry): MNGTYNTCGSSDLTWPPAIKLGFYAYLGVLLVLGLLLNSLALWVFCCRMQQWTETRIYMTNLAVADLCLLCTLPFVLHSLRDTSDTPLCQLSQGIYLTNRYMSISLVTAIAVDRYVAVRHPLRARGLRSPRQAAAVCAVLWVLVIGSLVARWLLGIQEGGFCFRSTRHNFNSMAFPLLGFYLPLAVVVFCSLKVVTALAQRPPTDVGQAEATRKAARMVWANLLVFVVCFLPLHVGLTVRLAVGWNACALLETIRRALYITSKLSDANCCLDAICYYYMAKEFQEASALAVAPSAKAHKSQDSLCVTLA
T11 sequence (P98170 whole entry): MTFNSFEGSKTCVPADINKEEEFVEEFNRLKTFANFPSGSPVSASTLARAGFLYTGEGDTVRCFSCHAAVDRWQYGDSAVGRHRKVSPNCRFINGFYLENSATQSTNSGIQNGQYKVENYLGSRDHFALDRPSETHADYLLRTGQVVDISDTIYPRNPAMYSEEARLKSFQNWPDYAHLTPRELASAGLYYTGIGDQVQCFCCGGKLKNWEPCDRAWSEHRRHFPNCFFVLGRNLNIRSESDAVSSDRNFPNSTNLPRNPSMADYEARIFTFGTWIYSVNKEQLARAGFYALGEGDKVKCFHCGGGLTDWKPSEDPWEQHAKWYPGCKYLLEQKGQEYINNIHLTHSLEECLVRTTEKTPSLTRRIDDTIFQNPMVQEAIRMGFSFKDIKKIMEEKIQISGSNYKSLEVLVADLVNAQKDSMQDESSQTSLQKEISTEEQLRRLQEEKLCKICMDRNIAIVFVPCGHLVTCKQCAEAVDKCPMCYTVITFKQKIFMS
T2 sequence (P34972 whole entry): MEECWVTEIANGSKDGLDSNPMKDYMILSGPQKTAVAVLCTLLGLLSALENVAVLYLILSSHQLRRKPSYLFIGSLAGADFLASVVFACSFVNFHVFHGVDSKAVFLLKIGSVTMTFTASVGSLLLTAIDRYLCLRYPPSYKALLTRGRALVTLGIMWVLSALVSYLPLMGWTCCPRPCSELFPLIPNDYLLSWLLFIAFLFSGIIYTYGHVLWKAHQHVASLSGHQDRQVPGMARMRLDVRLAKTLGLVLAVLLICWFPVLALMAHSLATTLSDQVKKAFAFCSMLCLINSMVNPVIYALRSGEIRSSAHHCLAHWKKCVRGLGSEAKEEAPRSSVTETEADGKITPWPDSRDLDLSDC
T3 sequence (Q9Y2T6 whole entry): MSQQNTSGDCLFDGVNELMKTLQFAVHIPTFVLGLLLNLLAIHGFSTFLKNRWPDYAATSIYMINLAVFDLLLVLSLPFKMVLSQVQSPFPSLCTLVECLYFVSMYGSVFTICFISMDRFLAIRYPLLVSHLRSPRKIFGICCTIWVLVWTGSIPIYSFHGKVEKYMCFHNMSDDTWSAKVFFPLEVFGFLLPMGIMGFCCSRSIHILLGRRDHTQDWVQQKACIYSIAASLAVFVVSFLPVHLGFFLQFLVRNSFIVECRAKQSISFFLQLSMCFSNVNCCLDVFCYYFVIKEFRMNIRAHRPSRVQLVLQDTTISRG
T9 sequence (Q01196 whole entry, the tested form may be a part): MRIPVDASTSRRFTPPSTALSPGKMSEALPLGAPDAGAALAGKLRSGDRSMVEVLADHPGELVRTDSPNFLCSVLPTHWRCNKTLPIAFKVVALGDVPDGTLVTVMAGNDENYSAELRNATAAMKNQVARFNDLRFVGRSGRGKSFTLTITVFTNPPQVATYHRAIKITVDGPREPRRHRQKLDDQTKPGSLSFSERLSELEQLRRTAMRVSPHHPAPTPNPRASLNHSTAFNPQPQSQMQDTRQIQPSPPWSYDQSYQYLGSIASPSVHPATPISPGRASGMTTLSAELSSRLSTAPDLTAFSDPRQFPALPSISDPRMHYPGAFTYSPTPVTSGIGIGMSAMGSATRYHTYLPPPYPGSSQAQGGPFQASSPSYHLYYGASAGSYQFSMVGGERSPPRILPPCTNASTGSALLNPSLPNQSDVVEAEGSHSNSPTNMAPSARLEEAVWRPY
T9 sequence (Q13951 whole entry, the tested form may be a part): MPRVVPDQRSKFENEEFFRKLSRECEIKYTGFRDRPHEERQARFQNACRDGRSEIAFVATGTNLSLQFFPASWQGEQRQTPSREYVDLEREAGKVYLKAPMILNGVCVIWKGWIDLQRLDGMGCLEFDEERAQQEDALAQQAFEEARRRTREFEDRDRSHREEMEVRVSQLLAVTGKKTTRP
T4 sequence (P21554 whole entry): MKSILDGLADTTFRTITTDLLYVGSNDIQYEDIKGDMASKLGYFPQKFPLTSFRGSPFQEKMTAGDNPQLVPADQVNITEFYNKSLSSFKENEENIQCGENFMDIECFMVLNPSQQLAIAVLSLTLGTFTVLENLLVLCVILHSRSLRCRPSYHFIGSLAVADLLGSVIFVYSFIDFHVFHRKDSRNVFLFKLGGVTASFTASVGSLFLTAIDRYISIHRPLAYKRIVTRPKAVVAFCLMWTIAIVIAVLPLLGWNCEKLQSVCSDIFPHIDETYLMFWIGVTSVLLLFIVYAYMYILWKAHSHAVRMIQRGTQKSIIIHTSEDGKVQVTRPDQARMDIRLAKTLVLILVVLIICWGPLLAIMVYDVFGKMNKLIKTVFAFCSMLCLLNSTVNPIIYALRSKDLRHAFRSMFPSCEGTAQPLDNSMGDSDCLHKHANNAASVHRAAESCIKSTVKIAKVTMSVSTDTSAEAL
Mitogen-activated protein kinase 10, sequence (P53779 whole entry): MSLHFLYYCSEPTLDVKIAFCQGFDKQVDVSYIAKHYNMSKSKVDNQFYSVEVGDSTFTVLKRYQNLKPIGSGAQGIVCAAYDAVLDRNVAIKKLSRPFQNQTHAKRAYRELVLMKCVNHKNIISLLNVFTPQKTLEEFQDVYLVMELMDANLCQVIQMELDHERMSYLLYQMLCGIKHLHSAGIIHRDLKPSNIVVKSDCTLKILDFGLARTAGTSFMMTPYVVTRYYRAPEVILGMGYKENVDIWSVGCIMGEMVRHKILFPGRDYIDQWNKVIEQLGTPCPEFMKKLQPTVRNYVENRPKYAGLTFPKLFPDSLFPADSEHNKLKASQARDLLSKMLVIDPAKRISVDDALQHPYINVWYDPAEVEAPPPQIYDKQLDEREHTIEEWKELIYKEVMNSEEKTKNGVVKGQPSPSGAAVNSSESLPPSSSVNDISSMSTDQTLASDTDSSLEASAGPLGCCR
Cytochrome P450 2D6, sequence (P10635 whole entry): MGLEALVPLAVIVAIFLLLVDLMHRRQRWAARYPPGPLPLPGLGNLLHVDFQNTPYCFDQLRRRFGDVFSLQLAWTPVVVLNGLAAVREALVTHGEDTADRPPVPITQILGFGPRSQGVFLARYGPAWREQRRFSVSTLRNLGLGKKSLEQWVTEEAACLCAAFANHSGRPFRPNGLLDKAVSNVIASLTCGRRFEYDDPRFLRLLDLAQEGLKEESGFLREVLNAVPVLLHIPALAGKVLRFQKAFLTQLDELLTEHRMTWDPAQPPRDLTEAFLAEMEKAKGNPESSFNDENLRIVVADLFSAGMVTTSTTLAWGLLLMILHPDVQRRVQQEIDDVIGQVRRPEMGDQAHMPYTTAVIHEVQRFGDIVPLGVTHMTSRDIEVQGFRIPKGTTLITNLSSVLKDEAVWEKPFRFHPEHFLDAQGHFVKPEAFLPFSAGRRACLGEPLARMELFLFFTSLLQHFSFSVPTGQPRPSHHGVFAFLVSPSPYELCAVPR
Delta-type opioid receptor, sequence (P41143 whole entry, the tested form may be a part): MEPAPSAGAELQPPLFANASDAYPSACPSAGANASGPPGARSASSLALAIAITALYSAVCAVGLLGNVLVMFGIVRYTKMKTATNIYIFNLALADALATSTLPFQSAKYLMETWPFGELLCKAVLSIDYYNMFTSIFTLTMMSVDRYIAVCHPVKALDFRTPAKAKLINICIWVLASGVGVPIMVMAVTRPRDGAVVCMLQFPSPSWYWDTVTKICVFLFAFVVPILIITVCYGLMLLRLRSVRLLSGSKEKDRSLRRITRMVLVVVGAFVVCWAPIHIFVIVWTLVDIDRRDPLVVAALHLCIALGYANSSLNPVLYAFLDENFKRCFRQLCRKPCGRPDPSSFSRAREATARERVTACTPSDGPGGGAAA
Mu-type opioid receptor, sequence (P35372 whole entry): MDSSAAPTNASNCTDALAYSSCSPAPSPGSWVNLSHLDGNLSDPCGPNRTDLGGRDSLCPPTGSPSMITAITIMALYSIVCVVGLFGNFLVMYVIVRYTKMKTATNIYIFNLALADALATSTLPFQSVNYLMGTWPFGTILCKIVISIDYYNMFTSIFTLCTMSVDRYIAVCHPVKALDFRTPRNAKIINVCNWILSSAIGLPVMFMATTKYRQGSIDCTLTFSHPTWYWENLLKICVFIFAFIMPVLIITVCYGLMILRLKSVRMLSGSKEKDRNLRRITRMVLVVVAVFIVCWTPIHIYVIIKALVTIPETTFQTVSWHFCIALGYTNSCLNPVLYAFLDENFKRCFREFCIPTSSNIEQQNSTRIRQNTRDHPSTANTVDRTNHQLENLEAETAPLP

N=c1c(C(=O)NC2CCCC2)cc2c(=O)n3ccccc3nc2n1C1CCCC1
IC50 [1]: > 32 µM (inactive) | EC50 (Cannabinoid receptor 2 [2]): > 32 µM (inactive) | AC50 (Cytochrome P450 2D6): 3.55 µM (inconclusive) | IC50 [3]: > 32 µM (inactive) | IC50 (Cannabinoid receptor 2 [4]): > 32 µM (inactive) | EC50 [5]: > 32 µM (inactive) | IC50 (Cannabinoid receptor 1 [6]): > 32 µM (inactive) | AC50 (Cytochrome P450 2C19): 11.2 µM (inconclusive) | EC50 (Cannabinoid receptor 1 [7]): > 32 µM (inactive)

O=C(COc1ccc(F)cc1Cl)N[C@H]1CCCN(Cc2ccccc2)C1
EC50 [8]: 10 µM (active)

Cc1noc(C)c1COC(=O)c1cc2c3ccccc3n(C)c2s1
EC50 [9]: 20.4 µM (inactive) | EC50 (Estrogen receptor): 23.1 µM (active)

Cc1ccnc2c1n1cccc1c(=O)n2CC(=O)NCCCN1CCN(c2ccc3c(c2)OCO3)CC1
IC50 (Mu-type opioid receptor): 17.2 µM (inactive) | IC50 [10]: 0.369 µM (active) | IC50 [11]: 0.0451 µM (active) | IC50 [12]: 0.482 µM (active) | IC50 [13]: > 32 µM (inactive)

CCSc1nc(O)c(CC)c(=O)n1C(C)CC (configuration not stated)
EC50 [14]: > 100 µM (inactive)

COc1ccc(NC2=NC(=O)/C(=C\c3ccco3)S2)cc1
IC50 (SUMO-activating enzyme): 9.8 µM (active)

OCCNc1c2ccccc2nc2c(F)c(F)c(F)c(F)c12
AC50 [15]: 4.14 µM (active) | IC50 [16]: > 100 µM (inactive) | IC50 [17]: 38.7 µM (active) | IC50 (Beta Lactamase): 2.27 µM (active) | IC50 (CHO): 3.97 µM (active) | EC50 [18]: 2.16 µM (active) | EC50 [19]: 3.83 µM (active) | EC50 (Kallikrein-7): > 69.5 µM (inactive)

COc1ccc(C(=O)n2nc(-c3ccccc3)nc2N)cc1OC
IC50 (Coagulation factor XII): 2.6 µM (active) | IC50 [20]: 19.2 µM (not active) | EC50 [21]: > 10 µM (not active)

Cc1ccc(-c2cc(C(=O)NC3=NCCS3)c3ccccc3n2)cc1C
IC50 [22]: > 100 µM (inactive) | IC50 [23]: > 100 µM (not active)

Reference: ChEMBL document CHEMBL1201862, “PubChem BioAssay data set” (2004)
